Results: article PMC10765126, “High-throughput computational screening and in vitro evaluation identifies 5-(4-oxo-4H-3,1-benzoxazin-2-yl)-2-[3-(4-oxo-4H-3,1-benzoxazin-2-yl) phenyl]-1H-isoindole-1,3(2H)-dione (C3), as a novel EGFR—HER2 dual inhibitor in gastric tumors” (Oncology Research, 2023)

Legend:
[1] = biological target: T1, HER2 (Homo sapiens, UniProt P04626); assay: luminescence kinase assay (Kinase-Glo Max, BPS Bioscience HER2 kit, […] ATP); type: biochemical
T1 construct: gene ERBB2

[2] = biological target: EGFR (Homo sapiens, UniProt P00533, L858R/T790M); assay: luminescence kinase assay (Kinase-Glo Max, BPS Bioscience EGFR (T790M/L858R) kit, […] ATP); type: biochemical
Sequence of EGFR (P00533 696-1210 T790M/L858R limits assumed): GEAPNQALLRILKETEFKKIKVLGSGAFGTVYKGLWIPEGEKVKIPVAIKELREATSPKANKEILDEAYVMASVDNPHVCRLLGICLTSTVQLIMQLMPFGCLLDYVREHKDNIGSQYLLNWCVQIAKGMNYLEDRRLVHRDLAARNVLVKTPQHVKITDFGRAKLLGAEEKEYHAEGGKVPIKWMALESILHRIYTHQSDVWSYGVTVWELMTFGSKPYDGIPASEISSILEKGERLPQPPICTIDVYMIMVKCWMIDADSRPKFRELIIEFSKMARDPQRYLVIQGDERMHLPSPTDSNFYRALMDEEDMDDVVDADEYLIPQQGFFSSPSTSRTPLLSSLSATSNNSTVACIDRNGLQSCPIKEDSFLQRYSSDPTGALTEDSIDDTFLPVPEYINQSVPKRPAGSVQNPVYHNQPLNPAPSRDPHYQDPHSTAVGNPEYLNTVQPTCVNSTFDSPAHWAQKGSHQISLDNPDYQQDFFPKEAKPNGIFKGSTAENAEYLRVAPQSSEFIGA

T1 sequence (P04626 23-1255): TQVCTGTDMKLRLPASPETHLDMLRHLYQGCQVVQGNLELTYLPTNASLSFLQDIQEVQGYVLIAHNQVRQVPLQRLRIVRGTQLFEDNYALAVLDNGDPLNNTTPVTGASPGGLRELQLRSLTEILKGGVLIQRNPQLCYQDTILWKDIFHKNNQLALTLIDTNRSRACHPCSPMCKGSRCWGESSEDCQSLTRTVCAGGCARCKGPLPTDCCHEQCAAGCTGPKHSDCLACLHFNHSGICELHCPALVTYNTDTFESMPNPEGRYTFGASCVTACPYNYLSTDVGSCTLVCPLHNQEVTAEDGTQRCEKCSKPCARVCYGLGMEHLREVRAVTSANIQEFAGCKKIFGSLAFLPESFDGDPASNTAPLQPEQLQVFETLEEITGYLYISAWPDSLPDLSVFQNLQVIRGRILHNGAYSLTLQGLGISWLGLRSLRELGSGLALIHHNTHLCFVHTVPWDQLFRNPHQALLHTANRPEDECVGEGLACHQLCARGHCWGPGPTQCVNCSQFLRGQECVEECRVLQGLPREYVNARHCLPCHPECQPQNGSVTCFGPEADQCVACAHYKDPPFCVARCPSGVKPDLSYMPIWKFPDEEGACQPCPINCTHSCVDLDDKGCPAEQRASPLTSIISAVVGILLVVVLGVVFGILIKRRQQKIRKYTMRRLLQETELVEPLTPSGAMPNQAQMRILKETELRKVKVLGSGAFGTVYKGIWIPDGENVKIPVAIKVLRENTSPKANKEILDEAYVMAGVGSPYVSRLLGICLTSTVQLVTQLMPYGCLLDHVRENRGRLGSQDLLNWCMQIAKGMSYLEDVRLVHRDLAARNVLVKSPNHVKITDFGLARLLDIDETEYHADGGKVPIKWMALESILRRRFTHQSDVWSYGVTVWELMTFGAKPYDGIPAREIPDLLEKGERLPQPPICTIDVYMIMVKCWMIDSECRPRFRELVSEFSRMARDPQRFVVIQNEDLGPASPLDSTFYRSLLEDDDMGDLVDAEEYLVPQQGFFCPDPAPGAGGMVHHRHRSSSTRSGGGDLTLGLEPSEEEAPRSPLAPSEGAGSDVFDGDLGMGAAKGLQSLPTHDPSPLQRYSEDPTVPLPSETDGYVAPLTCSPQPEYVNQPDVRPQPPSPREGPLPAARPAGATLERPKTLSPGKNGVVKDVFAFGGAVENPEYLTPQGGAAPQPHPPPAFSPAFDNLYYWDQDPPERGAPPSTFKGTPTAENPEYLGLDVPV

O=C1c2ccc(-c3nc4ccccc4c(=O)o3)cc2C(=O)N1c1cccc(-c2nc3ccccc3c(=O)o2)c1 [C3, 5-(4-oxo-4H-3,1-benzoxazin-2-yl)-2-[3-(4-oxo-4H-3,1-benzoxazin-2-yl)phenyl]-1H-isoindole-1,3(2H)-dione]
IC50 [1]: 45.8 nM | IC50 [2]: 37.2 nM
